Results: patent US12384777B2 (Tay Therapeutics Limited, priority 2019, dated 2025)
Where two headings read alike, the source gives them in different places.

How the values were obtained:
BRD4 BD1 = BRD4 BD1 (Homo sapiens (Human), UniProt O60885); assay: Bromodomain binding assay (T7 phage display, qPCR), BRD4 BD1
Experimental: (§1) T7 phage strains displaying bromodomains were grown in parallel in 24-well blocks in an E. coli host derived from the BL21 strain. E. coli were grown to log-phase and infected with T7 phage from a frozen stock (multiplicity of infection=0.4) and incubated with shaking at 32° C. until lysis (90-150 min). The lysates were centrifuged (5,000×g) and filtered (0.2 μm) to remove cell debris. Streptavidin-coated magnetic beads were treated with biotinylated small molecule or acetylated peptide ligands for 30 min at RT to generate affinity resins for bromodomain assays. The ligated beads were blocked with excess biotin and washed with blocking buffer (SeaBlock (Pierce), 1% BSA, 0.05% Tween 20, 1 mM DTT) to remove unbound ligand and to reduce non-specific phage binding. Binding reactions were assembled by combining bromodomains, ligated affinity beads, and test compounds in 1× binding buffer (16% SeaBlock, 0.32×PBS, 0.02% BSA, 0.04% Tween 20, 0.004% Sodium azide, 7.9 mM DTT). Test compounds were prepared as 1000× stocks in 100% DMSO and subsequently diluted 1:25 in MEG. The compounds were then diluted directly into the assays such that the final concentrations of DMSO and MEG were 0.1% and 2.4%, respectively. All reactions were performed in polypropylene 384-well plates in a final volume of 0.02 ml. The assay plates were incubated at RT with shaking for 1 hr and the affinity beads were washed with wash buffer (1×PBS, 0.05% Tween 20). The beads were then re-suspended in elution buffer (1×PBS, 0.05% Tween 20, 2 μM non-biotinylated affinity ligand) and incubated at RT with shaking for 30 min. The bromodomain concentration in the eluates was measured by quantitative polymerase chain reaction (qPCR).
(§2) An 11-point 3-fold serial dilution of each test compound was prepared in 100% DMSO at 1000× final test concentration. All compounds were distributed by acoustic transfer (non-contact dispensing) in 100% DMSO. The compounds were then diluted directly into the assays such that the final concentration of DMSO was 0.09%. Most dissociation constants were determined using a compound top concentration=10,000 nM. If the initial dissociation constant determined was <0.169 nM (the lowest concentration tested), the measurement was repeated with a serial dilution starting at a lower top concentration.
(§3) The same bromodomain assay procedure as that outlined above was used. Example compounds were screened at 30 times their Kd, and results for primary screen binding interactions are reported as ‘% Ctrl’, where lower numbers indicate stronger hits in the matrix.

[1] = Hydrolytic stability at a range of pHs; format: physicochemical; details: 60° C., 6 days
Experimental: To test the hydrolytic stability a 1 mg/mL solution of test materials was made in DMSO (0.1% solution). To 300 μL of each solution in a HPLC vials was added 1200 μL of one of the following: pH 4.0 buffer—left at 60° C. for 5 days. Samples taken t=0 hr and 6 days pH 5.5 buffer—left at 60° C. for 5 days. Samples taken t=0 hr and 6 days pH 7.4 buffer—left at 60° C. for 5 days. Samples taken t=0 hr and 6 days A 100 μL aliquot was taken at each time point and added to 900 μL of DMSO. This sample was used to determine % decomposition.
% decomposition was measured with a Bruker MicrOTOF II focus ESI Mass Spectrometer connected in parallel to Dionex Ultimate 3000 RSLC system with diode array detector.

[2] = Stability in human skin S9 fraction; format: in vitro ADME; details: 0.3 mg/mL S9, NADPH, UDPGA, 0.5 μM compound; for half-life at 0.5 μM: human, human skin S9 fraction, pH 7.4, read-out: T1/2 (min) in human skin S9 fractions
Experimental: An incubation mixture was prepared containing 50 mM potassium phosphate buffer, pH 7.4), 0.3 mg/mL human skin S9 (Sekisui Xenotech), NADPH (final conc 0.8 mg/mL), UDPGA (final conc 0.16 mg/mL) and warmed to 37° C. for 5 min. The reaction was initiated upon addition of test compound (final concentration 0.5 μM). Immediately, at time zero, then at 3, 6, 15, 30, 60, 120 and 180 min, an aliquot (50 μL) of the incubation mixture was removed and mixed with acetonitrile (100 μL) to terminate the reaction. Internal standard was added to all samples, the samples centrifuged to sediment precipitated protein and the plates then sealed prior to UPLC-MS/MS analysis using a Quattro Premier XE (Waters corporation, USA).
Grafit (Erithacus Ltd) was used to calculate the exponential decay and consequently the rate constant (k) from the ratio of peak area of test compound to internal standard at each timepoint. The half life (T1/2) of each test compound was determined using the following equation: T1/2=0.693/k

[3] = Solubility in topical formulations; format: physicochemical; details: thermodynamic from solid
Experimental: The solubilities of solid exemplary compounds were determined in a selection of solvents and solvent combinations (Transcutol, 50:50 Transcutol:water, Labrasol, propylene glycol and 1:5:4 ethanol:propylene glycol:water), after equilibration. An appropriate volume of each combination was added to a manual weighing of solid compound to provide a 20 mg/mL concentration. The resulting suspension was shaken at 1000 rpm for 5 hr at 32° C. before centrifugation at 13,000×g for 10 min to pellet any precipitate. The supernatant solution was removed and inserted into a HPLC vial and quantified by HPLC-UV against a calibration of a known concentration of the compound in DMSO.

human liver hepatocytes = assay: Intrinsic clearance in human liver hepatocytes; format: in vitro ADME; details: human cryopreserved hepatocytes, 0.5 μM test compound
Experimental: Vials of human cryopreserved hepatocytes, supplied by Life Technologies, were thawed according to manufacturer's instructions and cells re-suspended in Williams Medium E (WME) containing cell maintenance supplement pack (CM4000, Life Technologies). Hepatocytes were incubated in suspension (0.5 million cells/mL) in 48 well non-collagen coated cell culture plates for 10 min at 37° C., 5% CO2. Upon addition of an equal volume of supplemented WME containing 1 μM test compound, an aliquot of incubation solution was removed to acetonitrile containing internal standard (final concentration 0.5 μM test compound and a cell density of 0.25 million cells/mL). Similarly, aliquots were removed at 3, 6, 9, 15, 30, 45, 60, 90 and 120 min. 100 μL of 80:20 water:acetonitrile was added to all samples and the analysis plate was centrifuged for 10 min at RT prior to injection and analysis of samples by UPLC-MS/MS. The response (area ratio of test compound to internal standard) was plotted against time using an exponential decay model from which rate of disappearance was calculated.

[4] = system: CD4+ T-cells stimulated by CD2, CD3 and CD28 antibodies; assay: Cellular activity IL-4: reduction of IL-4 levels in activated CD4+ T-cells; format: cell-based, human; details: Homo sapiens, T-cell
Experimental: • 1. CD4^+ T-cells are isolated from cryopreserved human peripheral blood mononuclear cells (PBMCs) using EasySep™ Kit (Cat. No. 17952, Stemcell Technologies). • 2. CD2, CD3 and CD28 antibodies coated beads from T cell Activation/Expansion Kit (Cat. No. 130-091-441, Miltenyi Biotec) are added to the CD4^+ T-cells at a bead-to-cell ratio of 1:2. • 3. CD4^+ T-cells along with the beads are seeded at 2×10^5 cells/well in a round bottom 96-well plate and treated with different compounds and controls in a total volume of 200 μl. • 4. The cells are cultured for 48 hrs at 37° C., 5% CO2. • 5. Supernatant is collected and IL-4 is analysed by ELISA.

BRDT(1) = BRDT(1) (Homo sapiens (Human), UniProt Q58F21); assay: Bromodomain binding assay, BRDT(1)
Experimental: as §1
(§4) An 11-point 3-fold serial dilution of each test compound was prepared in 100% DMSO at 1000× final test concentration. […] Most dissociation constants were determined using a compound top concentration=10,000 nM. If the initial dissociation constant determined was <0.169 nM (the lowest concentration tested), the measurement was repeated with a serial dilution starting at a lower top concentration. […]

BRDT(2) = BRDT(2) (Homo sapiens (Human), UniProt Q58F21); assay: Bromodomain binding assay, BRDT(2)
Experimental: as §1, §4

[5] = system: healthy human skin stimulated by a Th2 or Th17 biasing cocktail; assay: Th2 and Th17 stimulation of human skin explants, IL-4 / IL-17A mRNA; format: cell-based
Experimental: • 1. Freshly excised healthy human skin tissue from abdominoplasties is defatted, cleaned and sectioned into 7 mm biopsies. • 2. The biopsies are placed in Transwell® inserts with the epidermis apical and exposed to air and the dermis submerged in media in the basal chamber. • 3. The biopsies are pre-treated overnight at 37° C., 5% CO2 with different compounds and controls added to the media in the basal chamber. • 4. The next day, contents of the basal chamber is replaced with fresh media containing the test compound and a stimulation cocktail for either Th2 inflammation (proprietary Medpharm cocktail) or Th17 inflammation (mix of antibodies against CD3, CD28, IL-4, IFNγ and recombinant IL-1β, IL-6, IL-21, TGF-β). • 5. The biopsies are incubated at 37° C., 5% CO2 for a further 24 hrs. • 6. After harvesting, the biopsies are cut in half, and one half is homogenized and used for RNA extraction by standard methods. IL-4 or IL-17A is assessed by RT-qPCR.

BRD3(1) = BRD3(1) (Homo sapiens (Human), UniProt Q15059); assay: Bromodomain binding assay, BRD3(1)
Experimental: as §1, §4

BRD4 BD2 = BRD4 BD2 (Homo sapiens (Human), UniProt O60885); assay: Bromodomain binding assay (T7 phage display, qPCR), BRD4 BD2
Experimental: as §1, §2, §3

BRD2(1) = BRD2(1) (Homo sapiens (Human), UniProt P25440); assay: Bromodomain binding assay, BRD2(1)
Experimental: as §1, §4

BRD3(2) = BRD3(2) (Homo sapiens (Human), UniProt Q15059); assay: Bromodomain binding assay, BRD3(2)
Experimental: as §1, §4

BRD2(2) = BRD2(2) (Homo sapiens (Human), UniProt P25440); assay: Bromodomain binding assay, BRD2(2)
Experimental: as §1, §4

[6] = Labrasol, oil or lipid, 5 hr at 32° C., read-out: Solubility in LB (Labrasol)
[7] = Transcutol, organic solvent or mixture, 5 hr at 32° C., read-out: Solubility in TC (Transcutol)
[8] = Transcutol:water 1:1, aqueous with cosolvent or surfactant or cyclodextrin, 5 hr at 32° C., read-out: Solubility in TC:water 1:1
[9] = propylene glycol, organic solvent or mixture, 5 hr at 32° C., read-out: Solubility in PG (Propylene glycol)
[10] = 48 hrs, ELISA, read-out: EC50 reduction of IL-4 levels
[11] = read-out: cellular EC50 values, reduction of IL-4 levels
[12] = single point, screened at 30 times Kd, lower numbers indicate stronger hits

BRD2(2), sequence (P25440 344-453): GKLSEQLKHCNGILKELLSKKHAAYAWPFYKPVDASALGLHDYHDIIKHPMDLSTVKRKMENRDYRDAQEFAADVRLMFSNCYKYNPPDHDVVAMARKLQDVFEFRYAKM
BRD3(1), sequence (Q15059 34-140): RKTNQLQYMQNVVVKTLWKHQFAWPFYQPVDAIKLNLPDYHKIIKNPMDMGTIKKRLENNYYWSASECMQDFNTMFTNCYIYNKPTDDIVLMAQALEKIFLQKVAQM
BRD2(1), sequence (P25440 74-180): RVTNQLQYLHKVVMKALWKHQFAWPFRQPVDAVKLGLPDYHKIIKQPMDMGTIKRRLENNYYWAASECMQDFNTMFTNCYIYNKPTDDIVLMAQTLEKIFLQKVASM
BRD3(2), sequence (Q15059 306-415): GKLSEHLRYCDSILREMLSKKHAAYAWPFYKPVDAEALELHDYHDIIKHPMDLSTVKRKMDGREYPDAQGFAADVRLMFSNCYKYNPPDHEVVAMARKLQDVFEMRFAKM

Structure (SMILES): Cn1cc(-c2ccc(O)cc2Oc2ccccc2)c2cc[nH]c2c1=O [Example 2, 4-(4-hydroxy-2-phenoxyphenyl)-6-methyl-1,6-dihydro-7H-pyrrolo[2,3-c]pyridin-7-one]
- Kd (BRD4 BD1; read-out: BRD4 BD1 Kd): 10 to 100 nM
- pH 4.0 % decomposition ([1]; pH 4.0 buffer): 15%
- pH 5.5 % decomposition ([1]; pH 5.5 buffer): 30%
- pH 7.4 % decomposition ([1]; pH 7.4 buffer): 0%
- half-life at 0.5 μM [2]: > 120 min
- solubility at 5 hr [3, 6]: 1000 to 10000 µg/mL
- solubility at 5 hr [3, 7]: > 10000 µg/mL
- solubility at 5 hr [3, 8]: 1000 to 10000 µg/mL
- solubility at 5 hr [3, 9]: 1000 to 10000 µg/mL
- Intrinsic clearance, % Liver Blood Flow (human liver hepatocytes): 88 % Liver Blood Flow

Structure (SMILES): Cn1cc(-c2cc(O)ccc2Oc2ccccc2)c2cc[nH]c2c1=O [Example 6, 4-(5-hydroxy-2-phenoxyphenyl)-6-methyl-1,6-dihydro-7H-pyrrolo[2,3-c]pyridin-7-one]
- Kd (BRD4 BD1; read-out: BRD4 BD1 Kd): ≤ 10 nM
- T1/2 (min) in human skin S9 fractions [2]: >120 min
- half-life at 0.5 μM [2]: > 120 min
- solubility at 5 hr [3, 6]: > 10000 µg/mL
- solubility at 5 hr [3, 7]: > 10000 µg/mL
- solubility at 5 hr [3, 8]: 1000 to 10000 µg/mL
- solubility at 5 hr ([3]; ethanol:propylene glycol:water 1:5:4, aqueous with cosolvent or surfactant or cyclodextrin, 5 hr at 32° C., read-out: Solubility in EtOH:PG:water 1:5:4): 1000 to 10000 µg/mL
- solubility at 5 hr [3, 9]: > 10000 µg/mL
- solubility at 5 hr ([3]; topical formulation solvents and solvent combinations, 32 °C, organic solvent or mixture, read-out: solubilities in the formulations described): > 1000 µg/mL
- Intrinsic clearance, % Liver Blood Flow (human liver hepatocytes): 94 % Liver Blood Flow
- EC50 [4, 10]: 10 to 100 nM
- EC50 [4, 11]: < 100 nM

Structure (SMILES): CCNC(=O)c1cc2c(-c3ccn(C)c(=O)c3Oc3c(C)cc(F)cc3C)cn(C)c(=O)c2[nH]1 [Example 41, N-ethyl-4-(3-(4-fluoro-2,6-dimethylphenoxy)-1-methyl-2-oxo-1,2-dihydropyridin-4-yl)-6-methyl-7-oxo-6,7-dihydro-1H-pyrrolo[2,3-c]pyridine-2-carboxamide]
- Kd (BRDT(1); dose response): > 3000 nM
- BRDT(1) % Ctrl (BRDT(1); [12]): 100 % Ctrl
- Kd (BRDT(2); dose response): < 10 nM
- BRDT(2) % Ctrl (BRDT(2); [12]): 13 % Ctrl
- Kd (BRD4 BD1; dose response, read-out: BRD4(1) Kd): > 3000 nM
- Kd (BRD4 BD1; read-out: BRD4 BD1 Kd): > 1000 nM
- BRD4(1) % Ctrl (BRD4 BD1; [12]): 90 % Ctrl
- % reduction in IL-4 mRNA (IL-4) ([5]; 2.5 μM, Th2 biasing cocktail): ++ (> 50% reduction)
- % reduction in IL-17A mRNA (IL-17) ([5]; 2.5 μM, Th17 biasing cocktail): +++ (> 75% reduction)
- reduction of IL-4 or IL-17 levels ([5]; Th2 or Th17 biasing cocktail): > 50%
- Kd (BRD3(1); dose response): > 3000 nM
- BRD3(1) % Ctrl (BRD3(1); [12]): 85 % Ctrl
- Intrinsic clearance, % Liver Blood Flow (human liver hepatocytes): <34 % Liver Blood Flow
- Kd (BRD4 BD2; dose response, read-out: BRD4(2) Kd): < 10 nM
- Kd (BRD4 BD2; read-out: BRD4 BD2 Kd): ≤ 10 nM
- BRD4(2) % Ctrl (BRD4 BD2; [12]): 8.7 % Ctrl
- Kd (BRD2(1); dose response): > 3000 nM
- BRD2(1) % Ctrl (BRD2(1); [12]): 100 % Ctrl
- EC50 [4, 10]: 10 to 100 nM
- EC50 [4, 11]: < 100 nM
- Kd (BRD3(2); dose response): < 10 nM
- BRD3(2) % Ctrl (BRD3(2); [12]): 2.3 % Ctrl
- Kd (BRD2(2); dose response): < 10 nM
- BRD2(2) % Ctrl (BRD2(2); [12]): 0.1 % Ctrl
